From ChEMBL document CHEMBL3860036, “Sesquiterpene Hydroquinones with Protein Tyrosine Phosphatase 1B Inhibitory Activities from a Dysidea sp. Marine Sponge Collected in Okinawa” (J Nat Prod, 2016) come the findings set out here.

What is called inhibition is the share of the control response that was lost under treatment. By IC50 is commonly meant the concentration that gives 50% inhibition.

One assay concerns the target T1, Tyrosine-protein phosphatase non-receptor type 1 (Homo sapiens) (UniProt P18031).
T1 sequence (whole entry): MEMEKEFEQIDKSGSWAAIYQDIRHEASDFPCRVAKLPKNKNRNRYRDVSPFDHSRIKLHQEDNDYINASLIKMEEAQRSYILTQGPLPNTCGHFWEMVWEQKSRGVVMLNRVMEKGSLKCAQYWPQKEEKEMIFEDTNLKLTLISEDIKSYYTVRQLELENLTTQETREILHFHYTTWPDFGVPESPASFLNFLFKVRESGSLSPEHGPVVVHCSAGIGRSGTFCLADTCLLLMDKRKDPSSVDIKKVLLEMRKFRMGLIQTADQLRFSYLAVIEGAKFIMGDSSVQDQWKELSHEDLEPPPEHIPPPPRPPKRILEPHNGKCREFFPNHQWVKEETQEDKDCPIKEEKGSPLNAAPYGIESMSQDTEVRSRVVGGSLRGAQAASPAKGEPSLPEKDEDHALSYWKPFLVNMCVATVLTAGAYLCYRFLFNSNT
The assay is described as follows: Inhibition of recombinant human PTP1B (1 to 322 residues) expressed in Escherichia coli at 31 uM preincubated for 10 mins followed by pNPP substrate addition measured after 30 mins relative to control.
Conditions: not given
`C=C1CCC[C@H]2[C@](C)(Cc3cc(OC)ccc3O)[C@@H](C)CC[C@]12C`: the inhibition came out at 50%.
With `COc1ccc(O)c(C[C@]2(C)[C@@H](C)CC[C@]3(C)C(C)=CCC[C@@H]23)c1`, the inhibition is 0%.

The target in another assay is T2, Tyrosine-protein phosphatase non-receptor type 1 (Homo sapiens, UniProt P18031).
T2 sequence (P18031 whole entry): T1 sequence (whole entry)
Conditions: not given
On to `C=C1CCC[C@H]2[C@](C)(Cc3cc(OC(C)=O)ccc3O)[C@@H](C)CC[C@]12C`, for which the IC50 was found to be 8.6 µM.
The same measure, in the same setting: the same measure for `CC(=O)Oc1ccc(O)c(C[C@]2(C)[C@@H](C)CC[C@]3(C)C(C)=CCC[C@@H]23)c1`: 10 µM; for `C=C1CCC[C@H]2[C@](C)(Cc3cc(OC(C)=O)ccc3OC(C)=O)[C@@H](C)CC[C@]12C`: 14 µM.
The same measure, in the same setting: for `CC1=CCC[C@H]2[C@](C)(CC3=CC(=O)C=C(N)C3=O)[C@@H](C)CC[C@]12C` the value was 18 µM; for `CC(=O)Oc1ccc(O)cc1C[C@]1(C)[C@@H](C)CC[C@]2(C)C(C)=CCC[C@@H]12`, 9.5 µM; for `C=C1CCC[C@H]2[C@](C)(Cc3cc(OC(=O)CC)ccc3OC(=O)CC)[C@@H](C)CC[C@]12C`, 9.4 µM.
In turn, `CC1=CCC[C@H]2[C@](C)(Cc3cc(O)ccc3O)[C@@H](C)CC[C@]12C` [AVAROL] gave a concentration for half-maximal inhibition (IC50) of 12 µM.
The same measure, in the same setting: the same measure for `CC1=CCC[C@H]2[C@]3(C)Cc4cc(O)ccc4O[C@]3(C)CC[C@]12C`: 11 µM; for `C=C1CCC[C@H]2[C@](C)(Cc3cc(O)ccc3O)[C@@H](C)CC[C@]12C`: more than 32 µM; for `CCC(=O)Oc1ccc(OC(=O)CC)c(C[C@]2(C)[C@@H](C)CC[C@]3(C)C(C)=CCC[C@@H]23)c1`: 8.8 µM.
On the same count and under the same terms, the same measure for `C=C1CCC[C@H]2[C@](C)(Cc3cc(O)ccc3OC(C)=O)[C@@H](C)CC[C@]12C`: 6.5 µM.

The next assay addresses T1, Tyrosine-protein phosphatase non-receptor type 1 (Homo sapiens). Particulars: 25 uM.
Description: Inhibition of recombinant human PTP1B (1 to 322 residues) expressed in Escherichia coli at 25 uM preincubated for 10 mins followed by pNPP substrate addition measured after 30 mins relative to control
Take `CC(=O)Oc1ccc(OC(C)=O)c(C[C@]2(C)[C@@H](C)CC[C@]3(C)C(C)=CCC[C@@H]23)c1`: the inhibition was found to be 5%.

A further assay shares this target. Particulars: 32 uM.
Description: Inhibition of recombinant human PTP1B (1 to 322 residues) expressed in Escherichia coli at 32 uM preincubated for 10 mins followed by pNPP substrate addition measured after 30 mins relative to control
Consider `C=C1CCC[C@H]2[C@](C)(Cc3cc(O)ccc3O)[C@@H](C)CC[C@]12C`, for which the inhibition is 35%.
